According to US10506809B2, “Herbicidal combination comprising saflufenacil and glufosinate” (BASF SE, priority 2015, dated 2019):
Like-named read-outs stand apart in the source and are kept apart here.

What was measured:
Format in all cases: in vivo
[1] = tested on: Amaranthus retroflexus; assay: Greenhouse post-emergence herbicidal activity on AMARE (pig weed)
Text: (§1) The test plants were first grown to a height of 3 to 20 cm, depending on the plant habit, and only then treated (post-emergence treatment). Here, the herbicidal combinations were suspended, emulsified or dissolved in water as distribution medium and afterwards applied by spraying, using finely distributing nozzles.
(§2) The herbicides A, B and C were used as commercially available formulations and introduced to the spray liquor with the amount of solvent system used for applying the active compound. In the examples, the solvent used was water.
(§3) The test period extended over 20 days. During this time, the plants were tended, and their response to the treatments with active compounds was evaluated.
(§4) The evaluation for the damage caused by the chemical compositions was carried out using a scale from 0 to 100%, compared to the untreated control plants. Here, 0 means no damage and 100 means complete destruction of the plants.
(§5) The plants used in the greenhouse experiments belonged to the following species:
(§6) The value E, which is to be expected if the activity of the individual compounds is just additive, was calculated using the method of S. R. Colby (1967) “Calculating synergistic and antagonistic responses of herbicide combinations”, Weeds 15, p. 22 ff. For two component mixtures the value E was calculated by the following formula E=X+Y−(X·Y/100) where • X=effect in percent using a mixture of herbicides A and B at application rates a and b, respectively; • Y=effect in percent using herbicide C at an application rate c; • E=expected effect (in %) of A+B+C at application rates a+b+c.
(§7) If the value observed in this manner is higher than the value E calculated according to Colby, a synergistic effect is present.
(§8) Tables 1 to 21 relate to the herbicidal activities of the binary mixture of herbicides A and B, of herbicide C individually and of their combinations in post-emergence application assessed 20 days after treatment (20 DAT).

[2] = tested on: Digitaria sanguinalis; assay: Greenhouse post-emergence herbicidal activity on DIGSA (large crabgrass)
Text: as §1, §2, §3, §4, §5, §6, §7, §8

[3] = tested on: Avena fatua; assay: Greenhouse post-emergence herbicidal activity on AVEFA (common wild oat)
Text: as §1, §2, §3, §4, §5, §6, §7, §8

[4] = tested on: Abutilon theophrasti; assay: Greenhouse post-emergence herbicidal activity on ABUTH (velvetleaf)
Text: as §1, §2, §3, §4, §5, §6, §7, §8

[5] = tested on: Brachiaria decumbens; assay: Greenhouse post-emergence herbicidal activity on BRADC (Surinam grass)
Text: as §1, §2, §3, §4, §5, §6, §7, §8

[6] = tested on: Echinochloa crus-galli; assay: Greenhouse post-emergence herbicidal activity on ECHCG (barnyard grass)
Text: as §1, §2, §3, §4, §5, §6, §7, §8

[7] = tested on: Setaria viridis; assay: Greenhouse post-emergence herbicidal activity on SETVI (green foxtail)
Text: as §1, §2, §3, §4, §5, §6, §7, §8

[8] = tested on: Solanum nigrum; assay: Greenhouse post-emergence herbicidal activity on SOLNI (black nightshade)
Text: as §1, §2, §3, §4, §5, §6, §7, §8

[9] = tested on: Brachiaria platyphylla; assay: Greenhouse post-emergence herbicidal activity on BRAPP (broadleaf signalgrass)
Text: as §1, §2
The test period extended over 20 days. During this time, the plants were tended, and their response to the treatments with active compounds was evaluated. […]
The value E, which is to be expected if the activity of the individual compounds is just additive, was calculated using the method of S. R. Colby (1967) “Calculating synergistic and antagonistic responses of herbicide combinations”, Weeds 15, p. […] For two component mixtures the value E was calculated by the following formula E=X+Y−(X·Y/100) where • X=effect in percent using a mixture of herbicides A and B at application rates a and b, respectively; • Y=effect in percent using herbicide C at an application rate c; • E=expected effect (in %) of A+B+C at application rates a+b+c.
If the value observed in this manner is higher than the value E calculated according to Colby, a synergistic effect is present. […]

[10] = Abutilon theophrasti, 480 h, ABUTH, solo C 20.0 g ai/ha, 20 DAT, read-out: % activity 20 DAT
[11] = solo C S-metolachlor 150.0 g ai/ha
[12] = solo C 2,4-D LV ester 6.25 g ai/ha

CS(=O)(=O)c1ccc(C(=O)C2=C(Sc3ccccc3)C3CCC(C3)C2=O)c(Cl)c1 (stereo not drawn) [benzobicyclon, Benzobicyclon]
% activity 20 DAT ([1]; solo C 20.0 g ai/ha, 20 DAT): 60%
% activity 20 DAT ([2]; solo C 20.0 g ai/ha, 20 DAT): 60%
% activity 20 DAT ([3]; solo C 10.0 g ai/ha): 10%
% activity 20 DAT ([4]; ABUTH, solo C 20.0 g ai/ha, 20 DAT): 90%

Cc1ccc(S(=O)(=O)Oc2c(C(=O)c3ccc(Cl)cc3Cl)c(C)nn2C)cc1 [pyrazolynate, Pyrazolynate]
% activity 20 DAT ([5]; solo C 10.0 g ai/ha, 20 DAT): 0%
% activity 20 DAT ([2]; solo C 10.0 g ai/ha, 20 DAT): 0%
pest or weed control at 20 g/ha [4, 10]: 25%

Cc1nn(C)c(O)c1C(=O)c1ccc(C(F)(F)F)cc1S(C)(=O)=O [pyrasulfotole, Pyrasulfotole]
% activity 20 DAT ([6]; solo C 2.5 g ai/ha): 80%
% activity 20 DAT ([5]; solo C 5.0 g ai/ha, 20 DAT): 0%
% activity 20 DAT ([2]; solo C 5.0 g ai/ha, 20 DAT): 35%

Bicyclopyrone
% activity 20 DAT ([7]; SETVI, solo C 1.0 g ai/ha, 20 DAT): 0%
% activity 20 DAT ([6]; solo C 20.0 g ai/ha): 75%
% activity 20 DAT ([3]; solo C 2.0 g ai/ha): 0%

Nc1c(Cl)c(F)nc(OCC(=O)O)c1Cl [fluroxypyr, Fluroxypyr]
% activity 20 DAT ([3]; solo C 10.0 g ai/ha): 0%
pest or weed control at 20 g/ha [4, 10]: 50%

CCOCN(C(=O)CCl)c1c(C)cccc1CC [acetochlor, Acetochlor]
inhibition at 12.5 g/ha ([4]; Abutilon theophrasti, 480 h, solo C acetochlor 12.5 g ai/ha, ABUTH, read-out: % activity 20 DAT): 10%

CCC(CC)Nc1c([N+](=O)[O-])cc(C)c(C)c1[N+](=O)[O-] [pendimethalin, Pendimethalin]
inhibition at 150 g/ha ([7]; Setaria viridis, 480 h, solo C pendimethalin 150.0 g ai/ha, SETVI, read-out: % activity 20 DAT): 25%
inhibition at 75 g/ha ([1]; Amaranthus retroflexus, 480 h, solo C pendimethalin 75.0 g ai/ha, read-out: % activity 20 DAT): 55%

CS(=O)(=O)c1ccc(C(=O)C2C(=O)CCCC2=O)c(Cl)c1COCC(F)(F)F [tembotrione, Tembotrione]
inhibition at 1 g/ha ([7]; Setaria viridis, 480 h, solo C tembotrione 1.0 g ai/ha, SETVI, read-out: % activity 20 DAT): 0%
inhibition at 0.5 g/ha ([1]; Amaranthus retroflexus, 480 h, solo C tembotrione 0.5 g ai/ha, read-out: % activity 20 DAT): 80%
inhibition at 1 g/ha ([3]; Avena fatua, 480 h, solo C tembotrione 1.0 g ai/ha, read-out: % activity 20 DAT): 10%
inhibition at 1 g/ha ([4]; Abutilon theophrasti, 480 h, solo C tembotrione 1.0 g ai/ha, ABUTH, read-out: % activity 20 DAT): 10%

C#CCN1C(=O)COc2cc(F)c(N3C(=O)C4=C(CCCC4)C3=O)cc21 [flumioxazin, Flumioxazin]
inhibition at […] ([7]; Setaria viridis, 480 h, solo C flumioxazin 0.25 g ai/ha, SETVI, read-out: % activity 20 DAT): 60%
inhibition at 0.125 g/ha ([4]; Abutilon theophrasti, 480 h, solo C flumioxazin 0.125 g ai/ha, ABUTH, read-out: % activity 20 DAT): 80%

CS(=O)(=O)c1ccc(C(=O)C2C(=O)CCCC2=O)c([N+](=O)[O-])c1 [mesotrione, Mesotrione]
inhibition at […] ([7]; Setaria viridis, 480 h, solo C mesotrione 2.5 g ai/ha, SETVI, read-out: % activity 20 DAT): 25%
inhibition at 1.25 g/ha ([8]; Solanum nigrum, 480 h, solo C mesotrione 1.25 g ai/ha, read-out: % activity 20 DAT): 85%

CCc1cccc(C)c1N(C(=O)CCl)[C@@H](C)COC [S-metolachlor, S-Metolachlor]
% activity 20 DAT ([7]; solo C S-metolachlor 300.0 g ai/ha, SETVI): 60%
% activity 20 DAT [5, 11]: 0%
% activity 20 DAT [2, 11]: 0%
% activity 20 DAT ([4]; solo C S-metolachlor 150.0 g ai/ha, ABUTH): 10%

CCNc1nc(Cl)nc(NC(C)C)n1 [atrazin, Atrazin]
inhibition at 6.25 g/ha ([8]; Solanum nigrum, 480 h, solo C atrazin 6.25 g ai/ha, read-out: % activity 20 DAT): 35%

COc1c(Cl)ccc(Cl)c1C(=O)O [dicamba, Dicamba]
inhibition at 8.75 g/ha ([7]; Setaria viridis, 480 h, read-out: % activity 20 DAT): 15%
inhibition at 17.5 g/ha ([4]; Abutilon theophrasti, 480 h, solo C dicamba 17.5 g ai/ha, ABUTH, read-out: % activity 20 DAT): 70%

COC[C@H](C)N(C(=O)CCl)c1c(C)csc1C [dimethenamid-P, Dimethenamid-P]
% activity 20 DAT ([8]; solo C dimethenamid-P 18.75 g ai/ha): 10%

Cc1c(C(=O)c2cnn(C)c2O)ccc(S(C)(=O)=O)c1C1=NOCC1 [topramezone, Topramezone]
% activity 20 DAT ([6]; solo C 0.25 g ai/ha): 20%
% activity 20 DAT ([2]; solo C 0.25 g ai/ha, 20 DAT): 10%
% activity 20 DAT ([3]; solo C 0.25 g ai/ha): 10%
% activity 20 DAT ([4]; ABUTH, solo C 0.25 g ai/ha, 20 DAT): 0%

Cc1nn(-c2cc(NS(C)(=O)=O)c(Cl)cc2Cl)c(=O)n1C(F)F [salfentrazone, Sulfentrazone]
inhibition at 1.5 g/ha ([7]; Setaria viridis, 480 h, solo C salfentrazone 1.5 g ai/ha, SETVI, read-out: % activity 20 DAT): 30%
inhibition at 1.5 g/ha ([4]; Abutilon theophrasti, 480 h, solo C salfentrazone 1.5 g ai/ha, ABUTH, read-out: % activity 20 DAT): 40%

O=C(O)c1c(Cl)ccc2cc(Cl)cnc12 [quinclorac, Quinclorac]
inhibition at 5 g/ha ([6]; Echinochloa crus-galli, 480 h, solo C quinclorac 5.0 g ai/ha, read-out: % activity 20 DAT): 0%
inhibition at 5 g/ha ([3]; Avena fatua, 480 h, solo C quinclorac 5.0 g ai/ha, read-out: % activity 20 DAT): 0%

CS(=O)(=O)c1cc(C(F)(F)F)ccc1C(=O)c1cnoc1C1CC1 [isoxaflutole, Isoxaflutole]
inhibition at 0.5 g/ha ([1]; Amaranthus retroflexus, 480 h, solo C isoxaflutole 0.5 g ai/ha, read-out: % activity 20 DAT): 55%
inhibition at 1 g/ha ([9]; Urochloa platyphylla, 480 h, solo C isoxaflutole 1.0 g ai/ha, read-out: % activity 20 DAT): 25%

CCCCC(CC)COC(=O)COc1ccc(Cl)cc1Cl (stereo not drawn) [2,4-D LV ester, 2,4-D]
% activity 20 DAT [1, 12]: 45%
% activity 20 DAT [9, 12]: 10%

CCOc1nc(F)cc2nc(S(=O)(=O)Nc3c(Cl)cccc3Cl)nn12 [diclosulam, Diclosulam]
% activity 20 DAT ([7]; solo C diclosulam 0.5 g ai/ha, SETVI): 35%
% activity 20 DAT ([8]; solo C diclosulam 0.25 g ai/ha): 25%

CS(=O)(=O)c1ccc(C(=O)C2C(=O)CCCC2=O)c(Cl)c1 [sulcotrione, Sulcotrione]
% activity 20 DAT ([6]; solo C 2.5 g ai/ha): 30%
% activity 20 DAT ([5]; solo C 5.0 g ai/ha, 20 DAT): 0%
pest or weed control at 20 g/ha ([4]; Abutilon theophrasti, 480 h, read-out: % activity 20 DAT): 85%
